Assay results reported in ChEMBL document CHEMBL4837201, “Increased antibacterial properties of indoline-derived phenolic Mannich bases” (Eur J Med Chem, 2021).
Values after ≈ are worked out from the molar mass of the structure shown.

What was measured:
[1] = Cytotoxicity against human HaCaT cells assessed as cell viability at 50 uM after 24 hrs by MTT assay; assay type: cell-based; details: HaCaT cells, read-out: Activity
HaCaT = test: Cytotoxicity against human HaCaT cells assessed as reduction in cell viability at 50 uM after 24 hrs by MTT assay; assay type: cell-based
Enterococcus faecalis [2] = test: Antibacterial activity against Enterococcus faecalis ATCC 29212 assessed as inhibition of bacterial growth incubated for 16 to 24 hrs by broth microdilution method; assay type: functional; details: time 16-24 hrs
Enterococcus faecalis [3] = test: Antibacterial activity against vancomycin-resistant Enterococcus faecalis ATCC 51299 assessed as inhibition of bacterial growth incubated for 16 to 24 hrs by broth microdilution method; assay type: functional; details: time 16-24 hrs
[4] = tested on: Staphylococcus epidermidis; test: Antibacterial activity against Staphylococcus epidermidis ATCC 12228 assessed as inhibition of bacterial growth incubated for 16 to 24 hrs by broth microdilution method; assay type: functional; details: time 16-24 hrs
Staphylococcus aureus [5] = test: Antibacterial activity against Staphylococcus aureus ATCC 6538 assessed as inhibition of bacterial growth incubated for 16 to 24 hrs by broth microdilution method; assay type: functional; details: time 16-24 hrs
[6] = Toxicity in Saccharomyces cerevisiae ATCC 2601 assessed as reduction in cell viability measured after 24 hrs by microdilution method; details: Saccharomyces cerevisiae, Saccharomyces cerevisiae ATCC 2601 cells
Staphylococcus aureus [7] = test: Antibacterial activity against methicillin-sensitive Staphylococcus aureus ATCC 25923 assessed as inhibition of bacterial growth incubated for 16 to 24 hrs by broth microdilution method; assay type: functional; details: time 16-24 hrs
Staphylococcus aureus [8] = test: Antibacterial activity against methicillin-resistant Staphylococcus aureus CIP106760 assessed as inhibition of bacterial growth incubated for 16 to 24 hrs by broth microdilution method; assay type: functional; details: time 16-24 hrs
Bacillus subtilis = test: Antibacterial activity against Bacillus subtilis ATCC 6633 assessed as inhibition of bacterial growth incubated for 16 to 24 hrs by broth microdilution method; assay type: functional; details: time 16-24 hrs
[9] = Cytotoxicity against human HaCaT cells assessed as cell viability at 28 uM after 24 hrs by MTT assay; assay type: cell-based; details: read-out: Activity
[10] = Antioxidant activity assessed as DPPH radical scavenging activity at 10 ug/ml by DPPH assay relative to control; assay type: functional; details: dose 10.0 µg/ml
[11] = Toxicity in Artemia salina assessed as mortality at 10 ug/ml measured after 24 hrs; details: at 10 µg/mL

| SMILES | viability at 24 h, 50 µM [1] | Activity (HaCaT) | MBC (Enterococcus faecalis [2]) | MIC (Enterococcus faecalis [2]) | MBC (Enterococcus faecalis [3]) | MIC (Enterococcus faecalis [3]) | MBC [4] | MIC [4] | MBC (Staphylococcus aureus [5]) | MIC (Staphylococcus aureus [5]) | IC50 at 24 h [6] | MBC (Staphylococcus aureus [7]) | MIC (Staphylococcus aureus [7]) | MBC (Staphylococcus aureus [8]) | MIC (Staphylococcus aureus [8]) | MBC (Bacillus subtilis) | MIC (Bacillus subtilis) | viability at 24 h, 28 µM [9] | Activity [10] | mortality at 24 h, 10 ug/ml [11] |
| --- | --- | --- | --- | --- | --- | --- | --- | --- | --- | --- | --- | --- | --- | --- | --- | --- | --- | --- | --- | --- |
| Cc1ccccc1C(c1cc([N+](=O)[O-])ccc1O)N1CCc2cc(Cl)ccc21 (configuration not stated) | 3% | Toxic | 9.89 µM (≈ 3.91 µg/mL) | 1.24 µM (≈ 0.49 µg/mL) | 158 µM (≈ 62.4 µg/mL) | 2.47 µM (≈ 0.975 µg/mL) | 2.36 µM (≈ 0.932 µg/mL) | < 1.18 µM | 4.95 µM (≈ 1.95 µg/mL) | 1.24 µM (≈ 0.49 µg/mL) | > 100 µM | 39.6 µM (≈ 15.6 µg/mL) | 2.47 µM (≈ 0.975 µg/mL) | 2.47 µM (≈ 0.975 µg/mL) | 1.24 µM (≈ 0.49 µg/mL) | 4.71 µM (≈ 1.86 µg/mL) | < 1.18 µM | – | – | – |
| CN[C@H](CC(C)C)C(=O)N[C@H]1C(=O)N[C@@H](CC(N)=O)C(=O)N[C@H]2C(=O)N[C@H]3C(=O)N[C@H](C(=O)N[C@H](C(=O)O)c4cc(O)cc(O)c4-c4cc3ccc4O)[C@H](O)c3ccc(c(Cl)c3)Oc3cc2cc(c3O[C@@H]2O[C@H](CO)[C@@H](O)[C@H](O)[C@H]2O[C@H]2C[C@](C)(N)[C@H](O)[C@H](C)O2)Oc2ccc(cc2Cl)[C@H]1O [VANCOMYCIN] | – | – | – | 3.07 µM (≈ 4.45 µg/mL) | – | < 5.83 µM | – | 1.95 µM (≈ 2.83 µg/mL) | – | 1.35 µM (≈ 1.96 µg/mL) | – | – | 5.4 µM (≈ 7.83 µg/mL) | – | < 1.5 µM | – | 1.95 µM (≈ 2.83 µg/mL) | – | – | – |
| Cc1ccc(C(c2cc([N+](=O)[O-])ccc2O)N2CCc3ccccc32)cc1 (configuration not stated) | – | – | 86.7 µM (≈ 31.2 µg/mL) | 10.8 µM (≈ 3.89 µg/mL) | 173 µM (≈ 62.4 µg/mL) | 21.7 µM (≈ 7.82 µg/mL) | – | – | 43.4 µM (≈ 15.6 µg/mL) | 10.8 µM (≈ 3.89 µg/mL) | > 100 µM | 347 µM (≈ 125 µg/mL) | 21.3 µM (≈ 7.68 µg/mL) | 5.42 µM (≈ 1.95 µg/mL) | 2.71 µM (≈ 0.977 µg/mL) | – | – | 20% | > 80% | – |
| Cc1ccc(C(c2cc([N+](=O)[O-])ccc2O)N2CCc3c(C#N)cccc32)cc1 (configuration not stated) | – | – | 42.9 µM (≈ 16.5 µg/mL) | 2.68 µM (≈ 1.03 µg/mL) | 172 µM (≈ 66.3 µg/mL) | 5.36 µM (≈ 2.07 µg/mL) | 302 µM (≈ 116 µg/mL) | 37.8 µM (≈ 14.6 µg/mL) | 40.5 µM (≈ 15.6 µg/mL) | 20.3 µM (≈ 7.82 µg/mL) | – | 85.8 µM (≈ 33.1 µg/mL) | 10.7 µM (≈ 4.12 µg/mL) | 21.4 µM (≈ 8.25 µg/mL) | 2.68 µM (≈ 1.03 µg/mL) | 9.43 µM (≈ 3.63 µg/mL) | 4.71 µM (≈ 1.82 µg/mL) | – | 19% | – |
| Cc1ccc(C(c2cc([N+](=O)[O-])ccc2O)N2CCc3cc(O)ccc32)cc1 (configuration not stated) | – | – | 108 µM (≈ 40.7 µg/mL) | 135 µM (≈ 50.8 µg/mL) | 108 µM (≈ 40.7 µg/mL) | 135 µM (≈ 50.8 µg/mL) | 302 µM (≈ 114 µg/mL) | 37.8 µM (≈ 14.2 µg/mL) | 332 µM (≈ 125 µg/mL) | 166 µM (≈ 62.6 µg/mL) | – | 542 µM (≈ 204 µg/mL) | 67.7 µM (≈ 25.5 µg/mL) | 108 µM (≈ 40.7 µg/mL) | 67.7 µM (≈ 25.5 µg/mL) | > 9.43 µM | 2.4 µM (≈ 0.903 µg/mL) | – | > 80% | – |
| Cc1ccccc1C(c1cc([N+](=O)[O-])ccc1O)N1CCc2c(C#N)cccc21 (configuration not stated) | – | – | 81.1 µM (≈ 31.3 µg/mL) | 5.07 µM (≈ 1.95 µg/mL) | 162 µM (≈ 62.4 µg/mL) | 10.1 µM (≈ 3.89 µg/mL) | 18.9 µM (≈ 7.28 µg/mL) | 2.36 µM (≈ 0.91 µg/mL) | 20.3 µM (≈ 7.82 µg/mL) | 5.07 µM (≈ 1.95 µg/mL) | – | 81.1 µM (≈ 31.3 µg/mL) | 10.1 µM (≈ 3.89 µg/mL) | 20.3 µM (≈ 7.82 µg/mL) | 5.07 µM (≈ 1.95 µg/mL) | 18.9 µM (≈ 7.28 µg/mL) | 4.71 µM (≈ 1.82 µg/mL) | – | – | – |
| Cc1ccccc1C(c1cc([N+](=O)[O-])ccc1O)N1CCc2cc([N+](=O)[O-])ccc21 (configuration not stated) | – | – | 9.64 µM (≈ 3.91 µg/mL) | 1.2 µM (≈ 0.486 µg/mL) | 154 µM (≈ 62.4 µg/mL) | 2.41 µM (≈ 0.977 µg/mL) | 4.71 µM (≈ 1.91 µg/mL) | < 1.18 µM | 9.64 µM (≈ 3.91 µg/mL) | 2.41 µM (≈ 0.977 µg/mL) | 121 µM | 38.6 µM (≈ 15.6 µg/mL) | 1.2 µM (≈ 0.486 µg/mL) | 4.82 µM (≈ 1.95 µg/mL) | 1.2 µM (≈ 0.486 µg/mL) | 2.36 µM (≈ 0.957 µg/mL) | < 1.18 µM | – | – | 3% |
| Cc1ccc(C(c2cc([N+](=O)[O-])ccc2O)N2CCc3cc(Cl)ccc32)cc1 (configuration not stated) | – | – | 9.19 µM (≈ 3.63 µg/mL) | 1.15 µM (≈ 0.454 µg/mL) | 9.19 µM (≈ 3.63 µg/mL) | 2.3 µM (≈ 0.908 µg/mL) | 37.7 µM (≈ 14.9 µg/mL) | 75.4 µM (≈ 29.8 µg/mL) | < 158 µM | 19.8 µM (≈ 7.82 µg/mL) | – | 36.8 µM (≈ 14.5 µg/mL) | 2.3 µM (≈ 0.908 µg/mL) | 4.59 µM (≈ 1.81 µg/mL) | 1.15 µM (≈ 0.454 µg/mL) | 151 µM (≈ 59.6 µg/mL) | 37.7 µM (≈ 14.9 µg/mL) | – | > 80% | – |
